Source: patent US9382305B2, “Relaxin fusion polypeptides and uses thereof” (BAYER INTELLECTUAL PROPERTY GMBH, priority 2011, dated 2016)
Each block holds one molecule with its values, some of them ahead of it.

Tests used:
[1] = test system: isolated perfused rat heart; assay: Isolated perfused rat heart (Langendorff); parameters: species or system Wistar rats
Procedure: Male Wistar rats (200-250 g) were anesthetized using Narcoren (100 mg/kg i.p.). The heart was rapidly excised and connected to a Langendorff perfusion system (FMI GmbH, Seeheim-Ober Beerbach, Germany). The heart was perfused at a constant rate of 10 ml/min with Krebs-Henseleit bicarbonate buffer solution equilibrated with 95% O2-5% CO2. The perfusion solution contained (in mmol/l): NaCl 118; KCl 3; NaHCO3 22; KH2PO41,2; MgSO4 1,2; CaCl2 1,8; Glucose 10; Na-Pyruvat 2. A pressure transducer registered the perfusion pressure in the perfusion system. The left ventricular pressure (LVP) was measured using a second pressure transducer connected to a water-filled balloon which was inserted into the left ventricle via the left atrium. The end diastolic pressure was initially set to 8 mm Hg by adjusting the volume of the balloon. The hearts were spontaneously beating. The signals from the pressure transducer were amplified, registered and used for the calculation of the heart frequency and +dp/dt by a personal computer.

[2] = In vivo plasma stability: serum levels by quantification ELISA after intravenous administration; conditions: male Wistar rats, 240 μg/kg intravenously, three days after application
Procedure: Blood samples were collected at the indicated time points after application and serum levels of each protein were measured by using a quantification ELISA.
At time points 0 hour, 1 hour, 3 days, 5 days, and 7 days after compound administration, blood samples were taken and the concentrations of the Fc-single chain Relaxin and non-modified hRelaxin2 were determined using the commercially available quantification ELISA (R&D Systems, Human Relaxin-2 Quantikine ELISA Kit, catalogue number DRL200).

[3] = intravenously administrated, humans (Dschietzig T. et al. (2009)); cited from earlier work
[4] = molecular target: T1, human LGR7/RXFP1 receptor (Homo sapiens, UniProt Q9HBX9); assay: Relaxin activity of plasma samples from scR-Fc 13 treated rats on CHO-CRE-LGR7 cell line; type: cell-based; conditions: plasma 3, 5 and 7 days after intravenous administration to rats
T1 construct: cloned as 2271 base pair long DNA fragment; expressed in transfected cells; host or cells: CHO K1 (ATCC CCL-61) with CRE-luciferase reporter; receptor in pcDNA3.1(-)
T1 sequence (Q9HBX9 1-757): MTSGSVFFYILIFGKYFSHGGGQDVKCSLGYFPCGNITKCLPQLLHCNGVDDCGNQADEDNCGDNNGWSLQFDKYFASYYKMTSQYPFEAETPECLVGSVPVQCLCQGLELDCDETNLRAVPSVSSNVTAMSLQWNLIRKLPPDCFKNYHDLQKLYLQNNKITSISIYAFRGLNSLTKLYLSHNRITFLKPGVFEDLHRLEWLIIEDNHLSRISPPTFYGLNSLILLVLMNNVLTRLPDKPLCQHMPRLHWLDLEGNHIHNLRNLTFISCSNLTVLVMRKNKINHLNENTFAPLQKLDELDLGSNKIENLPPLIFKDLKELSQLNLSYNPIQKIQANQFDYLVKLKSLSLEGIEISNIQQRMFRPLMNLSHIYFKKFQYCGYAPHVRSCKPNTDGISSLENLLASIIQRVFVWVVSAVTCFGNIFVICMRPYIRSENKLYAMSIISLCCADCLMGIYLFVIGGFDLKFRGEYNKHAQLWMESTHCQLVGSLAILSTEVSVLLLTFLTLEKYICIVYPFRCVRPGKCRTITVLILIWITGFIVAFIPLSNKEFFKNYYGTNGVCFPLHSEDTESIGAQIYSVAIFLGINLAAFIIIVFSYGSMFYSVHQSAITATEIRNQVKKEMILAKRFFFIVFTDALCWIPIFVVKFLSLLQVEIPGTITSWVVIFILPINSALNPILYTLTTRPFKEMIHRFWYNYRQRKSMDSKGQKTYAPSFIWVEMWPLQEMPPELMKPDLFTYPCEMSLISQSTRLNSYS
Procedure: Relaxin activity in blood samples obtained from scR-Fc 13 treated rats by using the CHO-CRE-LGR7 cell line was determined. Blood samples collected 3, 5, and 7 days after intravenous administration of scR-Fc 13 were incubated on the CHO-CRE-LGR7 cell line and Relative Lights Units were determined. Calibration curves were determined using hRelaxin 2 (R&D Systems, catalogue number 6586-RN-025) and purified scR-Fc 13. The EC50 within the dose response curve is marked by an X. Data are expressed as Relative Light Units, representing the activity of scR-Fc variants and hRelaxin 2 induced luciferase expression. Symbols represent means, error bars represent S.E.M.

Molecule: hRelaxin 2: commercially available recombinant expressed human Relaxin 2 (R&D Systems, catalogue number 6586-RN-025), positive control (alpha QLYSALANKCCHVGCTKRSLARFC; beta SWMEEVIKLCGRELVRAQIAICGMSTWS; listed as Homo Sapiens)
- contractility (inotropic activity) ([1]; concentration of 1 nM): negative inotrophic activity
- coronary flow ([1]; concentration of 1 nM): increase
- heart rate ([1]; concentration of 1 nM): increase
- potency relative to scR-Fc 13 ([1]; isolated perfused rat heart): ten fold more potent
- coronary flow ([1]; perfusion, FIG. 11): significant increase
- heart rate ([1]; perfusion, FIG. 11): significant increase
- left ventricular diastolic pressure ([1]; perfusion, FIG. 11): decrease
- left ventricular pressure (+dp/dtmax) ([1]; perfusion, FIG. 11): decrease
- serum concentration (ELISA) [2]: undetectable
- half-life [3]: less than 10 minutes

- activity of plasma samples [4]: activity could be determined
B1: scR-Fc 13: rat IgG2b Fc (6 Histidine tag) linked via GlyGlySerGlyGlySerGlyGlySerPro to N terminal end of scR4; SEQ ID NO: 28 (protein)
chain: HHHHHHPTCPTCHKCPVPELLGGPSVFIFPPKPKDILLISQNAKVTCVVVDVSEEEPDVQFSWFVNNVEVHTAQTQPREEQYNSTFRVVSALPIQHQDWMSGKEFKCKVNNKALPSPIEKTISKPKGLVRKPQVYVMGPPTEQLTEQTVSLTCLTSGFLPNDIGVEWTSNGHIEKNYKNTEPVMDSDGSFFMYSKLNVERSRWDSRAPFVCSVVHEGLHNHHVEKSISRPPGKGGSGGSGGSPQLYSALANKCCHVGCTKRSLARFCGGGSGGGSGSWMEEVIKLCGRELVRAQIAICGMSTWS
- coronary flow ([1]; perfusion, FIG. 11): significant increase
- heart rate ([1]; perfusion, FIG. 11): significant increase
- left ventricular diastolic pressure ([1]; perfusion, FIG. 11): decrease
- left ventricular pressure (+dp/dtmax) ([1]; perfusion, FIG. 11): decrease
- effects on heart rate, coronary flow and contractility compared with hRelaxin 2 ([1]; ten fold higher concentration than hRelaxin 2 (1 nM)): Comparable effects
